Where “and” joins values, the source holds several entries; their conditions need not be identical. Equal values may be shown once.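 Results reflect a 48-hour exposure of cells in 96-well plates to compound at five concentrations. GI50 is the concentration that inhibits growth by half. TGI: total growth inhibition.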

What all share (experiment): NCI-60 cell line screen, 48 h
For experiment [1], the system named is HOP-62 NSCLC.
For experiment [2], the system named is NCI-H522 lung.
Experiment [3] has as its system UO-31 renal.
For experiment [4], the system named is HOP-92 NSCLC.
Experiment [5] has as its system K-562 leukemia.
In experiment [6] the test system is MOLT-4 leukemia.
The test system of experiment [7] is HT29 colon.
The subject of experiment [8] is MALME-3M melanoma.
Experiment [9] deals with SK-OV-3 ovarian.
The test system of experiment [10] is A549 NSCLC.

Turning to `CS(=O)(=O)CSCSSCS(C)(=O)=O`, the TGI is more than 100 µM in experiment [1]; 34 µM in experiment [2]; more than 58.3 µM in experiment [3]; 98.2 µM in experiment [4]; more than 95.5 µM in experiment [5]; more than 82.9 µM in experiment [6]. Also, the TGI in experiment [7], in [8], in experiment [9] and in experiment [10] was more than 100 µM throughout.
`COc1ccc(-c2oc3c(OC)c(OC)c(OC)c(OC)c3c(=O)c2OC)cc1OC`: the TGI in [1] was 59.8 µM; in [2] it was 49.4 µM; in experiment [3], more than 100 µM; in experiment [4], 0.0897 µM; in experiment [5], more than 100 µM; in [6], more than 100 µM. The TGI is 64.8 µM in [7], 68 µM in [8], more than 100 µM in experiment [9] and more than 100 µM in [10].
In the case of `CCn1c(-c2nonc2N)nc2c(C#CC(C)(C)O)nc(OCCNC)cc21`, the GI50 is 7.81 µM in experiment [1]; 4.98 µM in experiment [2]; 8.9 µM in experiment [3]; 4.59 µM in experiment [4]; 10.3 µM in experiment [5]; 8.68 µM in [6]. For the same compound, the GI50 was 6.21 µM in [7], 7690 nM in [8], 5.74 µM in experiment [9] and 8.27 µM in [10]. In addition, the TGI is more than 25 µM in experiment [1]; 9.72 µM in [2]; more than 25 µM in experiment [3]; 14.5 µM in experiment [4]; more than 25 µM in experiment [5]; more than 25 µM in experiment [6]. Also, the TGI in experiment [7] was 13.8 µM; in experiment [8], 20.6 µM; in [9], more than 25 µM; in [10] it was more than 25 µM.
For the compound `Cc1ccc(-c2csc(NC(=O)CN3CCN(c4cc5c(cc4F)c(=O)c(C(=O)O)cn5C4CC4)CC3)n2)cc1`, the GI50 is 0.393 µM in [1]; 0.322 µM in [2]; 1.04 µM in [3]; 1.13 µM in experiment [4]; 0.771 µM in [5]; 1.23 µM in experiment [6]. For the same compound, the GI50 in experiment [7] is 0.326 µM; in experiment [8], 1750 nM; in experiment [9], 1.3 µM; in experiment [10], 0.433 µM. Also, the TGI in [1] was 14.6 µM; in experiment [2], 3.09 µM; in experiment [3], 41.1 µM; in experiment [4], 5.13 µM; in experiment [5] it was more than 100 µM; in experiment [6], more than 100 µM. Further, the TGI in [7] came out at 6.91 µM; in [8], 7.14 µM; in experiment [9], 5.52 µM; in [10] it was 13.9 µM.
Take `Cc1cc2c(cc1Cl)SC1=NN(C)C(N(C)C)N1S2(=O)=O` (stereo not given): the GI50 was more than 100 µM in [1]; more than 100 µM in experiment [2]; 98.1 µM in [3]; 55 µM in [4]; more than 100 µM in experiment [5]; more than 100 µM in experiment [6]. Also, the GI50 in [7] is more than 100 µM; in experiment [8] it was more than 100000 nM; in experiment [9], more than 100 µM; in [10], more than 100 µM. The TGI in experiment [1], in experiment [2], in experiment [3], in experiment [4], in experiment [5] and in [6] was more than 100 µM in each case. Further, the TGI in [7], in experiment [8], in experiment [9] and in experiment [10] was more than 100 µM each time.
`Cc1ccc2nc(-c3ccc(N(C)C)c(Br)c3)cn2c1`: the GI50 in experiment [1] was more than 100 µM; in experiment [2] it was more than 100 µM; in [3] it was more than 100 µM; in experiment [4], 44.4 µM; in experiment [5], 2.93 µM; in [6], 3.99 µM. Further, the GI50 in [7] is 7.02 µM; in [8] it was more than 100000 nM; in [9] it was more than 100 µM; in experiment [10], more than 100 µM. The TGI in experiment [1], in [2], in [3], in experiment [4], in [5] and in [6] was more than 100 µM each time. The TGI in experiment [7], in experiment [8], in experiment [9] and in experiment [10] was more than 100 µM each time.
Take `CCCCN(CCCC)c1c([N+](=O)[O-])c(=O)nc2ccccn12`: the TGI in experiment [1] is 73.6 µM; in [2] it was 36.4 µM; in experiment [3] it was 94 µM; in experiment [4], more than 100 µM; in [5] it was more than 100 µM; in experiment [6] it was more than 100 µM. The TGI in [7], in [8], in [9] and in [10] was more than 100 µM in each case.
As for `Cc1[nH]nc(C(=O)n2nc(N)c3ccccc32)c1[N+](=O)[O-]`, the GI50 in experiment [1] is more than 100 µM; in experiment [2], more than 100 µM; in experiment [3], more than 78.6 µM; in experiment [4], 56.4 µM; in experiment [5], more than 100 µM; in experiment [6], more than 89.4 µM. The GI50 was more than 100 µM in experiment [7], more than 100000 nM in experiment [8], more than 100 µM in experiment [9] and more than 100 µM in [10]. Moreover, the TGI in experiment [1], in [2], in [3], in experiment [4], in [5] and in experiment [6] was more than 100 µM each time. For the same compound, the TGI in experiment [7], in experiment [8], in experiment [9] and in experiment [10] was more than 100 µM throughout.
In the case of `C[C@]12CCCC(=O)C1(O)C[C@H](C(=O)O)CC2` (stereo not given in full), the TGI in experiment [1], in experiment [2], in experiment [3], in [4], in [5] and in experiment [6] was more than 100 µM throughout. Also, the TGI in [7], in experiment [8], in experiment [9] and in [10] was more than 100 µM throughout.
As for `Fc1cc2[nH]ncc2c2c3c(c(-c4cn[nH]c4C(F)(F)F)nc12)C1CCC3C1` (stereo not given), the GI50 in [1] is 0.97 µM; in [2], 0.906 µM; in [3] it was 0.767 µM; in [4], 0.885 µM; in experiment [5], 1.61 µM; in experiment [6] it was 0.99 µM. For the same compound, the GI50 was 1.47 µM in experiment [7], 1450 nM in experiment [8], 0.729 µM in experiment [9] and 1.07 µM in experiment [10]. The TGI in [1] was 3.75 µM; in experiment [2], 3.38 µM; in experiment [3], 1.97 µM; in experiment [4], 3.04 µM; in [5] it was more than 50 µM; in experiment [6], 4.31 µM. Moreover, the TGI amounted to 10.5 µM in experiment [7], 4.85 µM in experiment [8], 2.26 µM in experiment [9] and 4.41 µM in experiment [10].
As for `COc1ccc(N2C(=O)[C@H]3CC(C)c4c([nH]c5ccccc45)[C@H]3C2=O)cc1` (stereo not given in full), the TGI came to 16.3 µM in experiment [1]; 4.24 µM in experiment [2]; 83.8 µM in experiment [3]; 23.3 µM in [4]; 20 µM in experiment [5]; 49.4 µM in experiment [6]. Further, the TGI in experiment [7] was 21 µM; in experiment [8], 33.9 µM; in [9], 23.6 µM; in experiment [10], more than 90.7 µM.
Consider `C/C=C1\NC(=O)[C@H]2CSSCCC=C[C@H](CC(=O)N[C@H](C(C)C)C(=O)N2)OC(=O)[C@H](C(C)C)NC1=O`, for which the GI50 in experiment [1] was less than 0.01 µM; in [2] it was < 0.01 µM and 0.000105 µM; in experiment [3] it was 0.026 µM and 0.0145 µM; in [4], less than 0.01 µM; in experiment [5] it was < 0.01 µM and 0.000147 µM; in [6], less than 0.01 µM. In addition, the GI50 was less than 0.01 µM in experiment [7]; < 10 nM and 0.0209 nM in [8]; < 0.01 µM and 0.000175 µM in experiment [9]; less than 0.01 µM in experiment [10]. Besides, the TGI was < 0.01 µM and 0.000166 µM in experiment [2]; < 0.01 µM and 0.0161 µM and < 0.0324 µM in experiment [4]; < 0.01 µM and 0.0116 µM and 0.0262 µM in [7]; < 0.01 µM and 0.00789 µM in experiment [9]; < 0.012 µM and 0.0205 µM and 0.0185 µM in experiment [10].
For `N.N.N.N.O=C([O-])C(Cl)Cl.O=C([O-])C(Cl)Cl.[Co+3].[O-][Cl+3]([O-])([O-])[O-]`, the GI50 in experiment [1], in experiment [2], in [3], in experiment [4], in [5] and in [6] was more than 100 µM in each case. Also, the GI50 in [7] was more than 100 µM; in experiment [8] it was more than 100000 nM; in experiment [9] it was more than 100 µM; in experiment [10] it was more than 100 µM. The TGI in experiment [1], in experiment [2], in experiment [3], in [4], in experiment [5] and in [6] was more than 100 µM throughout. Besides, the TGI in experiment [7], in experiment [8], in experiment [9] and in experiment [10] was more than 100 µM throughout.
As for `CC[C@]1(O)C(=O)OCc2c1cc1n(c2=O)Cc2cc3c(N)cccc3nc2-1`, the TGI in [1], in experiment [2], in experiment [3], in experiment [4], in [5] and in experiment [6] was more than 100 µM throughout. Besides, the TGI in experiment [7], in [8], in experiment [9] and in experiment [10] was more than 100 µM throughout.

The record behind these values is PubChem BioAssay (NCI).
